In US20120295838A1, “Selective poly-substituted glycine antibiotics and related compositions” (priority 2008, published 2012):
Square brackets hold non-standard residues; d marks the D form. Peptide text beside a SMILES is read from it. Gly(N-CH2CH2-imidazol-4-yl) = O=C(O)CNCCc1c[nH]cn1; Nspe = C[C@H](NCC(=O)O)c1ccccc1; Nlys = NCCCCNCC(=O)O

Key:
E. coli JM109 = type: cell-based; conditions: Table 1; SR = (HD10)/(E. coli MIC); listed as 1-/Vhis6,12
Source text: An initial set of 15 ampetoid analogs was synthesized to determine whether peptoids are affected by structural and sequence modifications in a manner consistent with AMP activities. The designs for ampetoids in this library were derived from two antibacterial and selective amphipathic dodecamers, 1 and 2. Peptoid 1 [H-(Nlys-Nspe-Nspe)4-NH2] is composed of 2/3 Nspe, the peptoid analog of phenylalanine, and 1/3 Mys, the peptoid analog of lysine (see FIG. 1 for the structures of representative peptoid monomers and corresponding N-substituents). Peptoid 2 [H-(Mys-Nssb-Nspe)4-NH2] contains 1/3 isoleucine-like Nssb monomers in place of Nspe. The variant sequences were designed to effect changes in chirality, length, hydrophobicity, charge, and amphipathicity. All of these compounds were tested for antibacterial activity against representative BSL1 Gram-negative (E. coli JM109) and Gram-positive (B. subtilis BR151) bacterial strains. As an initial measure of selectivity, the lytic activity of the peptoids was determined against human erythrocytes. Table 1 summarizes the sequences synthesized, the solvent composition at RP-HPLC elution as a relative measure of molecular hydrophobicity, and antibacterial and hemolytic activities.
Antibacterial assays. MICs were determined according to CLSI M7-A6 protocols in a 96-well microtiter plate. […]

[1] = test system: A549 lung epithelial cells; experiment: MTS assay, A549 cells
Experimental: The biocompatibility of selected oligomers with A549 lung epithelial cells was evaluated using the MTS [3-(4,5-dimethylthiazol-2-yl)-5-(3-carboxymethoxyphenyl)-2-(4-sulfophenyl)-2H-tetrazolium] assay.
MTS Assays. A549 carcinoma-derived lung epithelial cells (ATTC CCL-185) were cultured in Ham's F12K media (ATTC, Manassas, Va.). A peptoid solution plate (100 μL/well) was prepared by serial dilution of aqueous peptoid stocks in media. Peptoid solutions were transferred onto a 96-well plate of day-old cell monolayers containing 100 μL/well media with 5000 cells/well. MTS reagent (Promega Corporation, Madison, Wis.) (40 μL/well) was added to each well and the plate was incubated at 37° C. for 3 h, after which absorbance at 490 nm was determined. Percent inhibition was determined as [1−(A−Atest blank)/(Acontrol−Ablank)]×100, where A is the absorbance of the test well and Acontrol the average absorbance of wells with cells exposed to media and MTS (no peptoid). Atest blank (media, MTS, and peptoid) and Ablank (media and MTS) were background absorbances measured in the absence of cells. The average of six replicates are reported, and error bars show one standard deviation.

C[C@@H](c1ccccc1)N(CC(=O)N(CCc1cnc[nH]1)CC(=O)N(CCCCN)CC(=O)N(CC(=O)N(CC(=O)N(CCCCN)CC(=O)N(CC(=O)N(CCc1cnc[nH]1)CC(N)=O)[C@@H](C)c1ccccc1)[C@@H](C)c1ccccc1)[C@@H](C)c1ccccc1)C(=O)CN(CCCCN)C(=O)CN(C(=O)CN(C(=O)CNCCCCN)[C@@H](C)c1ccccc1)[C@@H](C)c1ccccc1 [1-Nhis6,12, H-(Nlys-Nspe-Nspe-Nlys-Nspe-Nhis)2-NH2] (H-[Nlys][Nspe][Nspe][Nlys][Nspe][Gly(N-CH2CH2-imidazol-4-yl)][Nlys][Nspe][Nspe][Nlys][Nspe][Gly(N-CH2CH2-imidazol-4-yl)]-NH2)
Selectivity ratio (SR) (E. coli JM109): > 31 | ID10 relative to that of pexiganan [1]: 20 times
